Laboratory results reported in ChEMBL document CHEMBL3797159, “The discovery and the structural basis of an imidazo[4,5-b]pyridine-based p21-activated kinase 4 inhibitor” (Bioorg Med Chem Lett, 2016).
Calls of active or inactive are those of the source. The calls are words filed in the database; no cut-off is given here.

What was measured:
[1] = target: T1, Serine/threonine-protein kinase PAK 4 (Homo sapiens, UniProt O96013); assay: Binding affinity to recombinant human N-terminal His6-tagged PAK4 kinase domain (300 to 591 residues) expressed in Escherichia coli BL21(DE3) cells at 50 uM by circular dichroism analysis
Target sequence in this assay (O96013 whole entry, looked up, the tested form may be a part): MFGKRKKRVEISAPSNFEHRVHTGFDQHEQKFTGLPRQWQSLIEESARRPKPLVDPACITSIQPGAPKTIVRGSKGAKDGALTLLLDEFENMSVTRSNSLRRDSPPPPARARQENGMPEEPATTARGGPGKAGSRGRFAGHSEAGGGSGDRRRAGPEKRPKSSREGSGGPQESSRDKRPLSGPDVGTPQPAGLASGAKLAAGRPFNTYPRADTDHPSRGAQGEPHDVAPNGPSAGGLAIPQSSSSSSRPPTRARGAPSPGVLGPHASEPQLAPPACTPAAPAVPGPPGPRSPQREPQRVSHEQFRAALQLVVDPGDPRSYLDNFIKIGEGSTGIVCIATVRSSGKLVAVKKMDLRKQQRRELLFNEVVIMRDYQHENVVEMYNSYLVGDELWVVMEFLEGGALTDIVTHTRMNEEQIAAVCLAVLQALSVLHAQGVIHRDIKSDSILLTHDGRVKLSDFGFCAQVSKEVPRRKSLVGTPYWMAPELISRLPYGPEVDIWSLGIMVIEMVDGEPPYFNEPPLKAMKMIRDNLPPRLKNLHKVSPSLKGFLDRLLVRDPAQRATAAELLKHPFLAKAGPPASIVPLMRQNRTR

[2] = target: Aurora kinase B (Homo sapiens) (UniProt Q96GD4); assay: Inhibition of human recombinant Aurora-B expressed in sf9 cells using kemptide as substrate by radiometric assay in presence of gamma[32P]ATP
[3] = target: T1, Serine/threonine-protein kinase PAK 4; settings: 50 uM
Target sequence in this assay (O96013 whole entry, looked up, the tested form may be a part): as above
Description: Binding affinity to PAK4 (unknown origin) assessed as change in melting temperature at 50 uM by circular dichroism analysis

[4] = target: DNA-dependent protein kinase catalytic subunit (Homo sapiens) (UniProt P78527); assay: Inhibition of human DNA-PK by radiometric assay
[5] = target: T1, Serine/threonine-protein kinase PAK 4; assay: Inhibition of human PAK4 using myelin basic protein as substrate incubated for 40 mins by scintillation counting method in presence of gamma[33P]ATP
Target sequence in this assay (O96013 whole entry, the tested form may be a part): as the sequence (O96013 whole entry, looked up, the tested form may be a part) above

[6] = target: T2, Aurora kinase C (Homo sapiens) (UniProt Q9UQB9); assay: Inhibition of human Aurora-C by radiometric assay
T2 sequence (whole entry): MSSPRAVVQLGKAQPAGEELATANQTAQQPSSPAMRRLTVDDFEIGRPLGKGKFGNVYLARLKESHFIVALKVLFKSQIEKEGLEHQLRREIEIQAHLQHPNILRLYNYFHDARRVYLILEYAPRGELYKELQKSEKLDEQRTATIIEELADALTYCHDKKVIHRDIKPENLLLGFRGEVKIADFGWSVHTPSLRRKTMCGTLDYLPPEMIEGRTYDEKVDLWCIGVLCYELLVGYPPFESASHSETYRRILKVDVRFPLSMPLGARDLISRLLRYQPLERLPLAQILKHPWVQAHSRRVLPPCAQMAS

[7] = target: CDK4/Cyclin D3 (Homo sapiens) (UniProt P11802+P30281); assay: Inhibition of human recombinant CDK4/Cyclin D3 expressed in sf21 cells using Rb (773 to 928 residues) as substrate by radiometric assay in presence of gamma[32P]ATP
[8] = Solubility of compound; type: physicochemical
[9] = target: T3, Dual specificity tyrosine-phosphorylation-regulated kinase 2 (Homo sapiens) (UniProt Q92630); assay: Inhibition of human DYRK2 by radiometric assay
T3 sequence (whole entry): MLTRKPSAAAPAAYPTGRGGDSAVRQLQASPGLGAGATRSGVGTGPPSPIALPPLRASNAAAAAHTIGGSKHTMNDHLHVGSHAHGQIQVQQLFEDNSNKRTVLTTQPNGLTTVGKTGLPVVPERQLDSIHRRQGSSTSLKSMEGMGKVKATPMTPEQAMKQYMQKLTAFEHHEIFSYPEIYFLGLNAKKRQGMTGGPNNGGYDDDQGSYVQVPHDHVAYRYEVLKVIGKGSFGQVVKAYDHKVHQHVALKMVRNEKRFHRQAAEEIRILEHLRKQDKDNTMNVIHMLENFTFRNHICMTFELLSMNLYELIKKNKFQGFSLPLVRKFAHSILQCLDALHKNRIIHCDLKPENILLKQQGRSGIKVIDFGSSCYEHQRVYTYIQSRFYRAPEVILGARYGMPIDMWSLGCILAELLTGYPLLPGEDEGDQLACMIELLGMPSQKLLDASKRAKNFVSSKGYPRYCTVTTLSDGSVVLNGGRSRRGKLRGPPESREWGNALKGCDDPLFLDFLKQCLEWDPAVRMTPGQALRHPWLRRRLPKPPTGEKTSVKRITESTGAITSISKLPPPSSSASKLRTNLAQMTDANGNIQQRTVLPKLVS

Sequence of DNA-dependent protein kinase catalytic subunit (Homo sapiens) (P78527 whole entry): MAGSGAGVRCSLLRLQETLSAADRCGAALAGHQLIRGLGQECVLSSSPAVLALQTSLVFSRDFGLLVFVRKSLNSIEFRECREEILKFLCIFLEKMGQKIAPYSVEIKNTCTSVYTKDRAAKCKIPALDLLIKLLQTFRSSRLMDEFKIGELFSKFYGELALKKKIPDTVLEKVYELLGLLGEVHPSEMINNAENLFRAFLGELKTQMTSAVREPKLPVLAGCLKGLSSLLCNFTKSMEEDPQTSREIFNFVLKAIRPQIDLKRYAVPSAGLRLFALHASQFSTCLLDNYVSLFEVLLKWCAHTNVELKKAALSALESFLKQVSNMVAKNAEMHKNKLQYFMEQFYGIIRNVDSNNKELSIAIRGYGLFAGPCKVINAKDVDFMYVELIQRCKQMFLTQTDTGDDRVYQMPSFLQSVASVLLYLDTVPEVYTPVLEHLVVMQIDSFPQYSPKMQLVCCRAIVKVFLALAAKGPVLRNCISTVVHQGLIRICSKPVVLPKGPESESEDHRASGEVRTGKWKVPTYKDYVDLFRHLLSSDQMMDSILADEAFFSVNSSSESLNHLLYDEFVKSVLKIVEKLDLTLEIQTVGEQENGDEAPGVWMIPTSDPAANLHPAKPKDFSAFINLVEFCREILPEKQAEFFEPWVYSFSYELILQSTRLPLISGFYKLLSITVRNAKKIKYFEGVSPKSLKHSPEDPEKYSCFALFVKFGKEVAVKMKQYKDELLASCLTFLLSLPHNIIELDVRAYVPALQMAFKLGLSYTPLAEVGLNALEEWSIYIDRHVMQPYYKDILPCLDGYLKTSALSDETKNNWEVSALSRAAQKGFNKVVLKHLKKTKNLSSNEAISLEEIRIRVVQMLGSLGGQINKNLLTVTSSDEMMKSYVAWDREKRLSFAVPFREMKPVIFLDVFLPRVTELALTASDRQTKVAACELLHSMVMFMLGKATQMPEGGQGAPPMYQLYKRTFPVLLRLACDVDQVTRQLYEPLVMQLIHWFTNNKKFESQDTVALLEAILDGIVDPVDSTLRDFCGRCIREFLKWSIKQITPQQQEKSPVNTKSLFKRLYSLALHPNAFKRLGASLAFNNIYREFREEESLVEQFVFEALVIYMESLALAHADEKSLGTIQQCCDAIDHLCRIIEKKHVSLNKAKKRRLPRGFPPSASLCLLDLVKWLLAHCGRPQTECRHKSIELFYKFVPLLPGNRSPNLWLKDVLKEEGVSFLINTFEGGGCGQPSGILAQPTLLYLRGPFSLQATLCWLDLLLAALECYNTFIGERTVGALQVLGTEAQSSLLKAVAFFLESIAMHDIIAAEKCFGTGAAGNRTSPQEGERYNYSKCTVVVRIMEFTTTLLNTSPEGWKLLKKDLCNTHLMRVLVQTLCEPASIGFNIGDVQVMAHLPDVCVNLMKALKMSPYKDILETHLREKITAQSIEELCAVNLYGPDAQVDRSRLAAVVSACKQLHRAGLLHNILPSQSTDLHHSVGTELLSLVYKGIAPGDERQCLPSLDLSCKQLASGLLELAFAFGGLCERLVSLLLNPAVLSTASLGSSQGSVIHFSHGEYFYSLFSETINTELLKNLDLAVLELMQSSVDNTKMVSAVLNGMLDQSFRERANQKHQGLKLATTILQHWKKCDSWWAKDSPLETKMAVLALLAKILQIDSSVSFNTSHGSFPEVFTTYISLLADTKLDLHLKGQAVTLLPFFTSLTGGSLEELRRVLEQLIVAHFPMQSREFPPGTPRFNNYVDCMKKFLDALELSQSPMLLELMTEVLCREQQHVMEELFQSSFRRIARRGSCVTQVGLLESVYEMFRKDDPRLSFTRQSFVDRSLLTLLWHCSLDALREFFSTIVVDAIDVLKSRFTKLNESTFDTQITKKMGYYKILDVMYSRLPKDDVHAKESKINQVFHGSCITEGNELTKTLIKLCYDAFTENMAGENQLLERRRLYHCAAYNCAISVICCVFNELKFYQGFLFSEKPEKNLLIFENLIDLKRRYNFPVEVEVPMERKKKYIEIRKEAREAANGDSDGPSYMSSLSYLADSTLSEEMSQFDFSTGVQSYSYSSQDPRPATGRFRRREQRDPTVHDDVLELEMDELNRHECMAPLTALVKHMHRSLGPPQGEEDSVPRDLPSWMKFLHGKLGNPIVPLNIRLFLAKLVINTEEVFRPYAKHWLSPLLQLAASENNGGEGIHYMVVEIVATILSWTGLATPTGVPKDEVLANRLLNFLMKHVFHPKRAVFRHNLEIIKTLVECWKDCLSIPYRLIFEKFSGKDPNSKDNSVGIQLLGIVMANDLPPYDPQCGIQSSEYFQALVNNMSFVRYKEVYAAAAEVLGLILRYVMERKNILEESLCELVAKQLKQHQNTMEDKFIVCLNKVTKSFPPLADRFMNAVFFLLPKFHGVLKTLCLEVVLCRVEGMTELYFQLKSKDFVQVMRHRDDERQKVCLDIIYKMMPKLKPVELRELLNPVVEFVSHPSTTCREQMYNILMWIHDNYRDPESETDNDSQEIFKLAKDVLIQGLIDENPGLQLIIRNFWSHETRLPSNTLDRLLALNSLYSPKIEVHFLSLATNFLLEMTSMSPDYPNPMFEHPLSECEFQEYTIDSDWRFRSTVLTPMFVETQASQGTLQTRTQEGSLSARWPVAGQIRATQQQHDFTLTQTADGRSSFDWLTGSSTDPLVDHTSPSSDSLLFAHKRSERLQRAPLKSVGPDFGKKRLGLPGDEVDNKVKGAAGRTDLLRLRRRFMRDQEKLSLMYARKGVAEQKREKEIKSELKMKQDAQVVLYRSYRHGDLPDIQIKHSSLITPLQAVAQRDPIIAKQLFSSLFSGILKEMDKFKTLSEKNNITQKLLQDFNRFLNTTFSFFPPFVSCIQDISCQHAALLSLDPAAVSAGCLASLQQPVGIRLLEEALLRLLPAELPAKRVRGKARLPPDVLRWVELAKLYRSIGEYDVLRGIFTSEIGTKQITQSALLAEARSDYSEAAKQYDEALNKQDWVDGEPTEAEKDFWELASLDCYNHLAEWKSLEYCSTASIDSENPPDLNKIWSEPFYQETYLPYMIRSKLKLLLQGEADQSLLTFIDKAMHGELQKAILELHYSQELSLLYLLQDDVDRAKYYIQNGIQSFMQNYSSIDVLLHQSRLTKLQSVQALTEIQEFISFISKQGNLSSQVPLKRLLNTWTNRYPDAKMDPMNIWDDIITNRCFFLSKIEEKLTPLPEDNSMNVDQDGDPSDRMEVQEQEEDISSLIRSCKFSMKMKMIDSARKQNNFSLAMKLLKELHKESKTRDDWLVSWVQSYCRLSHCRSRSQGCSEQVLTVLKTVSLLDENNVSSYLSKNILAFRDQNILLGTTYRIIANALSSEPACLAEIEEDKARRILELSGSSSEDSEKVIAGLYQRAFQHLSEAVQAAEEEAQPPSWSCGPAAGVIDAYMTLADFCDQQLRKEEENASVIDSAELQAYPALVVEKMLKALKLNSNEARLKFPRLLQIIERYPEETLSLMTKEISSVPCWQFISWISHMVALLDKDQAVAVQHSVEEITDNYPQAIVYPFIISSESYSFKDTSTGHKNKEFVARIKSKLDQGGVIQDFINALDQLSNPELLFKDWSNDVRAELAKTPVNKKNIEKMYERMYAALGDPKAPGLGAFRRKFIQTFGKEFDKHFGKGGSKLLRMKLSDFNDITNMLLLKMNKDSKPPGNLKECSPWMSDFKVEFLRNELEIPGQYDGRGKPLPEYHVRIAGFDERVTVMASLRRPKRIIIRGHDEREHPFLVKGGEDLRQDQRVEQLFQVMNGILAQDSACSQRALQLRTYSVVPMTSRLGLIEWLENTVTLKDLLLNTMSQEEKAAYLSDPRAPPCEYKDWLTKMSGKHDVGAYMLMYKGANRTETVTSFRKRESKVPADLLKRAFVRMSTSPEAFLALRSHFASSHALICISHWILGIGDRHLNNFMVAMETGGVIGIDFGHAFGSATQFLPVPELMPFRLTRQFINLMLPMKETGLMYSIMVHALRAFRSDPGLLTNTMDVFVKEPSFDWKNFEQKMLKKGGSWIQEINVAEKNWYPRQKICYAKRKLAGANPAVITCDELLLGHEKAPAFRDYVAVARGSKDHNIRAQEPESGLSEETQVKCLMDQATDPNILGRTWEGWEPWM
Sequence of Aurora kinase B (Homo sapiens) (Q96GD4 whole entry): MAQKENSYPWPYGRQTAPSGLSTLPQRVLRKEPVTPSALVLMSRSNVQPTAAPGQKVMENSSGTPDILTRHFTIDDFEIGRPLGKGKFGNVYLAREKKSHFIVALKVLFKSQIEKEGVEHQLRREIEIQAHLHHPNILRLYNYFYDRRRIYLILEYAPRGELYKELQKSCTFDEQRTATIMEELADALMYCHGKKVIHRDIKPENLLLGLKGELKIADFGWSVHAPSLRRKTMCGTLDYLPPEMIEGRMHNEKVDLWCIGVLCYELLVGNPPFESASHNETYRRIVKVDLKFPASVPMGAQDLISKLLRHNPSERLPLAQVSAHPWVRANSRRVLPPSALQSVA

SMILES	ΔTm [1] [°C]	inhibition [2]	Tm [3] [°C]	inhibition [4]	IC50 [5] [µM]	inhibition [6]	inhibition [7]	solubility [8] [µM]	inhibition [9]
Cc1nc(Nc2n[nH]c3c2CN(C(=O)N[C@H](CN(C)C)c2ccccc2)C3(C)C)c2sccc2n1	16	–	–	–	–	–	–	–	–
CC(C)c1nn(C)cc1-c1nc2cc(Br)cnc2[nH]1	–	Active	48	inactive	8.7	Active	inactive	< 100	inactive
COc1nc(NCCc2c[nH]c3ccccc23)nc(Nc2ccc3[nH]ncc3c2)n1	6	–	–	–	–	–	–	–	–
